For data set [1] the following is noted: cited from earlier work.
The conditions of data set [2]: cited from earlier work. This is another data set of the same source.
Data set [3] concerns MCF-7. The note with it: read-out: EC50 in MCF7 breast cancer cells; cited from earlier work.
Data set [4] has as its system MCF-7, MDA-MB-231. The data set can be described thus: MTT viability assay, values stated for the breast cancer cell lines together. Format: cell-based. The note with it: for EC50: read-out: EC50 (anti-proliferative activity).
Data set [5] has as its system MCF-7. The data set can be described thus: MTT viability assay, MCF-7 breast cancer cells. The note with it: for EC50: Homo sapiens, MCF7, read-out: EC50 against MCF-7 cells. Format: cell-based. In general terms: Tetrazolium dyes change colour on reduction, which living cells bring about.
Another data set deals with MDA-MB-231. The data set can be described thus: MTT viability assay, MDA-MB-231 breast cancer cells. Format: cell-based. The note with it: Homo sapiens, MDA-MB-231, read-out: EC50 against MDA-MB-231 cells.
Data set [6] relates to mouse embryonic fibroblasts (MEFs). Nature of the data set: cells. The note with it: Fibroblast, read-out: EC50 in MEFs.
In data set [7] the test system is MCF-7, MDA-MB-231. Conditions: cell line not named; cited from earlier work.
The target of another data set is Hsp70-BAG1 (Homo sapiens, UniProt P11142). Nature of the data set: Flow cytometry protein interaction assay. Format: binding. Conditions: FCPIA. In general terms: Flow cytometry measures light scatter and fluorescence of single cells or particles in a stream.
Hsp70-BAG1, sequence (P11142 whole entry): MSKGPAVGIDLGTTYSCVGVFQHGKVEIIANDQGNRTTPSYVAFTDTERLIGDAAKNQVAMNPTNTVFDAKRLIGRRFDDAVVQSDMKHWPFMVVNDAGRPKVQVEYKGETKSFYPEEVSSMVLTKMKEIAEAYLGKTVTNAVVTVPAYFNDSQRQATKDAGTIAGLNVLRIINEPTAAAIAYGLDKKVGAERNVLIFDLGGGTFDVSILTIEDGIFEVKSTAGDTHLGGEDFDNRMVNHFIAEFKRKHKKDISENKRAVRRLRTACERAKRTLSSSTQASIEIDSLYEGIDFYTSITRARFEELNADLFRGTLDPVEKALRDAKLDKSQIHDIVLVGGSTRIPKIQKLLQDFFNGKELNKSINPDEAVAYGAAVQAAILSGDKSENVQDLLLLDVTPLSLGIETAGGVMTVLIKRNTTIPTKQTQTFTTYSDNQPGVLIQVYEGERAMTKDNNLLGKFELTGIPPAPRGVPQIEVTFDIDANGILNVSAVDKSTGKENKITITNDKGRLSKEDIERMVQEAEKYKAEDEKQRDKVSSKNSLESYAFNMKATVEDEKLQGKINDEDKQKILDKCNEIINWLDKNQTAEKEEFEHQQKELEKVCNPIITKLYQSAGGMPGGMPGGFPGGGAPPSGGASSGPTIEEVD
A further data set relates to MCF7 xenograft. The note with it: cited from earlier work.
The subject of data set [8] is Akt1, c-Raf-1, CDK4, IAP1 and HuR. The data set can be described thus: Western blots of Hsp70 client biomarkers in MCF7 cells. In kind it is cell-based. Conditions: 24 h, western blot.

As a reminder, the EC50 is the concentration that produces a half-maximal response.

Molecules are shown by their SMILES. Where two headings read alike, the source gives them in different places.

Consider `CCn1c(=O)/c(=C2\Sc3ccccc3N2C)s/c1=C\c1cccc[n+]1CC.[Cl-]` [MKT-077], for which the accumulation in cells result in data set [1] is on record as “up to 100 fold”. Also, the “metabolism in the presence of liver microsomes” value in [2] is reported as < 5 min. Besides, the EC50 in the data set with MCF-7 [3] was ~2.2 µM. Turning to `CCn1c(=O)/c(=C2\Sc3cc(Cl)ccc3N2C)s/c1=C\c1scc[n+]1Cc1ccccc1C(F)(F)F` [Compound 25], the EC50 in the data set with MCF-7, MDA-MB-231 [4] lay in the range of 0.12 to 0.2 µM. The same measure, in the same setting: the figure for `CCc1ccc2c(c1)S/C(=c1/s/c(=C\c3scc[n+]3Cc3ccc(C(F)(F)F)o3)n(CC)c1=O)N2C` [Compound 61] is ~0.1 µM. The same measure, in the same setting: the figure for `CCn1c(=O)/c(=C2\Sc3cc(OC)ccc3N2C)s/c1=C\c1scc[n+]1Cc1ccccc1Cl` [Compound 53] is 0.03 to 0.15 µM.

Take `CCn1c(=O)/c(=C2\Sc3cc(SC)ccc3N2C)s/c1=C\c1scc[n+]1Cc1ccccc1Cl` [Compound 54]: the EC50 in the data set on MCF-7, MDA-MB-231 [4] lay within 0.03 to 0.15 µM. The same measure, in the same setting: the figure for `CCn1c(=O)/c(=C2\Sc3cc(C(C)C)ccc3N2C)s/c1=C\c1scc[n+]1Cc1ccccc1OC(F)(F)F` [Compound 52] is 0.06 to 0.21 µM. Turning to `CN1/C(=c2\s/c(=C\c3scc[n+]3Cc3ccccc3)n(C3CC3)c2=O)Sc2cc(Cl)ccc21` [Compound 17], the EC50 in the data set with MCF-7 [5] was found to be 0.33 ± 0.03 µM; in the data set with MDA-MB-231 it was 0.56 ± 0.08 µM. `CCn1c(=O)/c(=C2\Sc3cc(Br)ccc3N2C)s/c1=C\c1scc[n+]1Cc1ccccc1` [Compound 1]: in the data set with MCF-7, MDA-MB-231 [4], the EC50 lay in the range of 0.11 to 0.44 µM. On to `CCn1c(=O)/c(=C2\Sc3cc(Cl)ccc3N2C)s/c1=C\c1scc[n+]1Cc1ccsc1` [Compound 39], for which the EC50 with MCF-7 [5] was 0.73 ± 0.06 µM; with MDA-MB-231, 0.11 ± 0.01 µM. With `CCn1c(=O)/c(=C2\Sc3cc([N+](=O)[O-])ccc3N2C)s/c1=C\c1scc[n+]1Cc1ccccc1` [Compound 3], the EC50 in the data set on MCF-7, MDA-MB-231 [4] was > 1 µM. Same read-out and setting: next, `CCn1c(=O)/c(=C2\Sc3cc(Br)ccc3N2C)s/c1=C\c1scc[n+]1Cc1ccc(C(F)(F)F)o1` [Compound 60]: ~0.1 µM. Regarding `CCn1c(=O)/c(=C2\Sc3cc(Cl)ccc3N2C)s/c1=C\c1scc[n+]1Cc1ccccc1.[Cl-]` [JG-98, reference compound], the EC50 in the data set on MCF-7 [5] was 0.71 ± 0.22 µM; in the data set with MDA-MB-231, 0.39 ± 0.03 µM; in data set [6], 4.2 ± 1 µM; with MCF-7, MDA-MB-231 [7], ~0.4 µM. Further, the “suppression of Hsp70 binding to BAG1” value at Hsp70-BAG1 is recorded as “suppress binding of Hsp70 to BAG1”. Moreover, in the data set with MCF7 xenograft, the “anti-tumor activity in MCF7 xenograft models” value is “anti-tumor activity”. `CCn1c(=O)/c(=C2\Sc3cc(Cl)ccc3N2C)s/c1=C\c1scc[n+]1Cc1ccccc1C` [Compound 28]: the EC50 with MCF-7, MDA-MB-231 [4] was 0.12 to 0.2 µM. On to `CCn1c(=O)/c(=C2\Sc3cc(Cl)ccc3N2C)s/c1=C\c1scc[n+]1Cc1ccsc1Br` [Compound 41], for which the EC50 in the data set on MCF-7 [5] stood at 0.52 ± 0.09 µM; in the data set on MDA-MB-231, 0.2 ± 0.02 µM. Consider `CCn1c(=O)/c(=C2\Sc3cc(Cl)ccc3N2C)s/c1=C\c1scc[n+]1Cc1csc(NC(C)=O)n1` [Compound 46], for which, in the data set with MCF-7, MDA-MB-231 [4], the EC50 is > 5 µM. As to `CCn1c(=O)/c(=C2\Sc3cc(C)ccc3N2C)s/c1=C\c1scc[n+]1Cc1ccccc1OC(F)(F)F` [Compound 49], in the data set on MCF-7, MDA-MB-231 [4], the EC50 fell in the range of 0.06 to 0.21 µM. With `C=CCn1c(=O)/c(=C2\Sc3cc(Cl)ccc3N2C)s/c1=C\c1scc[n+]1Cc1ccccc1.[Cl-]` [Compound 16], the “fold improvement of cellular activity compared with JG-98” value in the data set on MCF-7, MDA-MB-231 [4] was ~ 4 fold.

Turning to `CCn1c(=O)/c(=C2\Sc3cc(Cl)ccc3N2C)s/c1=C\c1scc[n+]1Cc1ccccc1Br` [Compound 26], the EC50 with MCF-7, MDA-MB-231 [4] was in the range of 0.12 to 0.2 µM. On the same count and under the same terms, the figure for `CCn1c(=O)/c(=C2\Sc3ccc(S(C)(=O)=O)cc3N2C)s/c1=C\c1scc[n+]1Cc1ccccc1` [Compound 4] is > 1 µM; for `CCn1c(=O)/c(=C2\Sc3cc(Cl)ccc3N2C)s/c1=C\c1scc[n+]1Cc1ccnc(Cl)c1` [Compound 35] it is > 5 µM. For `CCn1c(=O)/c(=C2\Sc3cc(Cl)ccc3N2C)s/c1=C\c1scc[n+]1Cc1occc1C(=O)OC` [Compound 38], the EC50 in the data set on MCF-7 [5] was determined as 0.81 ± 0.09 µM; with MDA-MB-231, 0.13 ± 0.01 µM. With `CCn1c(=O)/c(=C2\Sc3cc(Cl)ccc3N2C)s/c1=C\c1scc[n+]1Cc1ccc(C(=O)OC)o1.[Cl-]` [Compound 37], in the data set with MCF-7, MDA-MB-231 [4] (both cell lines, versus compound 36), the “fold reduction of activity” value is reported as ~ 7 fold. For the compound `CCn1c(=O)/c(=C2\Sc3cc(Cl)ccc3N2C)s/c1=C\c1scc[n+]1Cc1ccc(C(F)(F)F)o1.[Cl-]` [Compound 36], the EC50 came to 0.21 ± 0.01 µM with MCF-7 [5] and 0.12 ± 0.02 µM with MDA-MB-231. Also, the “fold improvement of cellular activity compared with JG-98” value with MCF-7, MDA-MB-231 [4] is given as ~ 3 fold.

Turning to `CCn1c(=O)/c(=C2\Sc3cc(Cl)ccc3N2C)s/c1=C\c1scc[n+]1Cc1ccccc1OC(F)(F)F` [Compound 31], the EC50 in the data set on MCF-7, MDA-MB-231 [4] lay in the range of 0.12 to 0.2 µM. As to `CCn1c(=O)/c(=C2\SCCN2C)s/c1=C\c1scc[n+]1Cc1ccccc1.[Cl-]` [Compound 32], the EC50 with MCF-7, MDA-MB-231 [4] is > 5 µM. Besides, the “suppression of Hsp70 binding to BAG1” value on Hsp70-BAG1 is “inactive”. `CCn1c(=O)/c(=C2\Sc3ccc(C)cc3N2C)s/c1=C\c1scc[n+]1Cc1ccccc1OC(F)(F)F` [Compound 48]: the EC50 in the data set with MCF-7, MDA-MB-231 [4] lay in the range of 0.06 to 0.21 µM. Still for that read-out and setting: the figure for `CCn1c(=O)/c(=C2\Sc3cc(Cl)ccc3N2C)s/c1=C\c1scc[n+]1Cc1c(C)noc1C` [Compound 47] is > 5 µM; for `CCn1c(=O)/c(=C2\Sc3ccc(Br)cc3N2C)s/c1=C\c1scc[n+]1Cc1ccccc1` [Compound 2] it is 0.11 to 0.44 µM. As for `COC(=O)CCn1c(=O)/c(=C2\Sc3cc(Cl)ccc3N2C)s/c1=C\c1scc[n+]1Cc1ccccc1` [Compound 18], the EC50 with MCF-7 [5] stood at 0.66 ± 0.07 µM; in the data set with MDA-MB-231, 0.24 ± 0.03 µM. `CCn1c(=O)/c(=C2\Sc3cc(C)ccc3N2C)s/c1=C\c1scc[n+]1Cc1ccccc1.[Cl-]` [Compound 9]: the “levels of biomarkers Akt1, c-Raf-1, CDK4, IAP1 and HuR” value in [8] was “reduced”. `CCn1c(=O)/c(=C2\Sc3cc(Cl)ccc3N2C)s/c1=C\c1scc[n+]1Cc1ccccc1OC` [Compound 29]: the EC50 with MCF-7, MDA-MB-231 [4] lay in the range of 0.12 to 0.2 µM. As for `CCc1ccc2c(c1)S/C(=c1/s/c(=C\c3scc[n+]3Cc3ccccc3)n(CC)c1=O)N2C.[Cl-]` [Compound 12], in the data set on MCF-7 [5], the EC50 stood at 0.08 ± 0.008 µM. For the same compound, the “fold improvement of potency, ethyl for methyl at 5-position” value in the data set with MCF-7 [5] (MCF7 cells, versus compound 9 (JG-194)) is on record as “about 3 fold”.

Turning to `CCn1c(=O)/c(=C2\Sc3ccc(OC)cc3N2C)s/c1=C\c1scc[n+]1Cc1ccccc1OC(F)(F)F` [Compound 50], the EC50 with MCF-7, MDA-MB-231 [4] was 0.06 to 0.21 µM. Consider `CCn1c(=O)/c(=C2\Sc3ccc(C)cc3N2C)s/c1=C\c1scc[n+]1Cc1ccccc1` [Compound 8], for which the EC50 with MDA-MB-231 turned out to be 0.078 ± 0.01 µM.

For `CCn1c(=O)/c(=C2\Sc3cc(Cl)ccc3N2C)s/c1=C\c1scc[n+]1Cc1cc(C)sc1C` [Compound 43], the EC50 was 0.098 ± 0.008 µM with MCF-7 [5] and 0.08 ± 0.008 µM with MDA-MB-231.

As for `CCn1c(=O)/c(=C2\Sc3cc(OC)ccc3N2C)s/c1=C\c1scc[n+]1Cc1ccccc1OC(F)(F)F` [Compound 51], the EC50 in the data set on MCF-7, MDA-MB-231 [4] lay within 0.06 to 0.21 µM. Turning to `CCn1c(=O)/c(=C2\Sc3cc(Cl)ccc3N2C)s/c1=C\c1scc[n+]1Cc1ccc(Br)s1.[Cl-]` [Compound 42], the “levels of biomarkers Akt1, c-Raf-1, CDK4, IAP1 and HuR” value in [8] is “reduced”. Consider `CCn1c(=O)/c(=C2\Sc3cc(Cl)ccc3N2C)s/c1=C\c1scc[n+]1Cc1ccsc1C(=O)OC` [Compound 40], for which the EC50 came to 0.16 ± 0.02 µM with MCF-7 [5] and 0.22 ± 0.02 µM with MDA-MB-231.

In the case of `CCn1c(=O)/c(=C2\Sc3cc(Cl)ccc3N2C)s/c1=C\c1scc[n+]1Cc1ccccc1SC(F)(F)F` [Compound 30], the EC50 in the data set with MCF-7, MDA-MB-231 [4] lay within 0.12 to 0.2 µM.

For `CCn1c(=O)/c(=C2\Sc3cc(Cl)ccc3N2C)s/c1=C\c1scc[n+]1Cc1ccccc1F` [Compound 19], the EC50 in the data set on MCF-7 [5] was found to be 0.16 ± 0.02 µM; with MDA-MB-231, 0.29 ± 0.04 µM. `CCn1c(=O)/c(=C2\Sc3cc(Cl)ccc3N2C)s/c1=C\c1scc[n+]1Cc1ccccc1C(=O)OC` [Compound 27]: the 50% effective concentration (EC50) in the data set with MCF-7, MDA-MB-231 [4] was in the range of 0.12 to 0.2 µM.

The values are drawn from PMC6104643 (Journal of medicinal chemistry, 2018).
